Where “and” joins values, the source holds several entries; their conditions need not be identical. Equal entries are not always repeated.
What was measured:
[1] = test system: human ovarian adenocarcinoma SKOV-3 cells; experiment: Cytotoxicity assay (CellTiter-Glo, 72 h), SKOV-3; type: cell-based; settings: raw replicate data
Summary of the method: (§1)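 Viability read by CellTiter-Glo luminescence after 72 h exposure to 2-fold compound dilutions (0.5% DMSO), added 4 h after plating 1000 cells/well.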

[2] = Cytotoxicity assay (CellTiter-Glo, 72 h), SKOV-3; type: cell-based, human; settings: human, raw replicate data, read-out: SKOV3 viability (%)
Summary of the method: as §1

[3] = Cytotoxicity assay (CellTiter-Glo, 72 h), Jurkat; type: cell-based; settings: human, Jurkat cells (T lymphoma), raw data (replicates)
Summary of the method: as §1

T lymphoma Jurkat cells = experiment: Cytotoxicity assay (CellTiter-Glo, 72 h), Jurkat; type: cell-based; settings: raw data (replicates)
Summary of the method: as §1

[4] = test system: malignant pleural mesothelioma MESO-1 cells; experiment: Cytotoxicity assay (CellTiter-Glo, 72 h), MESO-1; type: cell-based; settings: raw replicate data
Summary of the method: as §1

[5] = Cytotoxicity assay (CellTiter-Glo, 72 h), MESO-1; type: cell-based; settings: human, MESO-1 malignant pleural mesothelioma cells, raw replicate data, read-out: MESO1 viability (%)
Summary of the method: as §1

[6] = test system: Jurkat, SKOV-3 and MESO-1 cells; experiment: Cytotoxicity assay, statements for all tested cell lines together; type: cell-based; settings: Jurkat, SKOV-3 and MESO-1 cells, 72 h
Summary of the method: as §1

CO[C@@H]1/C=C/C=C/[C@@H](C)C[C@@H](C)C(=O)C[C@H](O)/C(C)=C/[C@@H](C)C(=O)C[C@@H]([C@H](C)C[C@@H]2CC[C@@H](O)[C@H](OC)C2)OC(=O)[C@@H]2CCCCN2C(=O)C(=O)[C@]2(O)O[C@@H](CC[C@H]2C)C1 [Compound 9]
SKOV3 viability (%) ([1]; conc 9.53674e-5 uM): 105.9% and 100.3% | SKOV3 viability (%) ([1]; conc 0.000190735 uM): 101.8% and 104.0% | SKOV3 viability (%) ([1]; conc 0.00038147 uM): 103.8% | SKOV3 viability (%) ([1]; conc 0.000762939 uM): 99.7% and 104.2% | SKOV3 viability (%) ([1]; conc 0.00152588 uM): 108.5% and 105.8% | SKOV3 viability (%) ([1]; conc 0.00305176 uM): 98.1% | SKOV3 viability (%) ([1]; conc 0.00610352 uM): 101.6% and 106.7% | SKOV3 viability (%) ([1]; conc 0.012207 uM): 93.5% and 95.1% | SKOV3 viability (%) ([1]; conc 0.0244141 uM): 95.8% and 102.2% | SKOV3 viability (%) ([1]; conc 0.0488281 uM): 93.6% and 92.4% | SKOV3 viability (%) ([1]; conc 0.0976562 uM): 93.2% and 87.5% | SKOV3 viability (%) ([1]; conc 0.195312 uM): 79.8% and 81.0% | SKOV3 viability (%) ([1]; conc 0.390625 uM): 82.0% and 78.5% | SKOV3 viability (%) ([1]; conc 0.78125 uM): 67.6% and 71.1% | SKOV3 viability (%) ([1]; conc 1.5625 uM): 76.5% and 72.9% | SKOV3 viability (%) ([1]; conc 3.125 uM): 73.0% and 75.2% | SKOV3 viability (%) ([1]; conc 6.25 uM): 70.8% and 73.4% | SKOV3 viability (%) ([1]; conc 12.5 uM): 62.7% and 63.5% | SKOV3 viability (%) ([1]; conc 25 uM): 72.9% | SKOV3 viability (%) ([1]; conc 50 uM): 57.2% and 56.0% | viability at 72 h, 9.53674e-05 uM ([2]; SKOV-3 cells (ovarian adenocarcinoma), conc 9.53674e-5 uM): 103% | viability at 72 h, 0.000190735 uM ([2]; SKOV-3 cells (ovarian adenocarcinoma), conc 0.000190735 uM): 105% | viability at 72 h, 0.00038147 uM ([2]; SKOV-3 cells (ovarian adenocarcinoma), conc 0.00038147 uM): 97.1% | viability at 72 h, 0.000762939 uM ([2]; SKOV-3 cells (ovarian adenocarcinoma), conc 0.000762939 uM): 101% | viability at 72 h, 0.00152588 uM ([2]; SKOV-3 cells (ovarian adenocarcinoma), conc 0.00152588 uM): 102% | viability at 72 h, 0.00305176 uM ([2]; SKOV-3 cells (ovarian adenocarcinoma), conc 0.00305176 uM): 97.4% | viability at 72 h, 0.00610352 uM ([2]; SKOV-3 cells (ovarian adenocarcinoma), conc 0.00610352 uM): 105% | viability at 72 h, 0.012207 uM ([2]; SKOV-3 cells (ovarian adenocarcinoma), conc 0.012207 uM): 99.1% | viability at 72 h, 0.0244141 uM ([2]; SKOV-3 cells (ovarian adenocarcinoma), conc 0.0244141 uM): 97.2% | viability at 72 h, 0.0488281 uM ([2]; SKOV-3 cells (ovarian adenocarcinoma), conc 0.0488281 uM): 90.5% | viability at 72 h, 0.0976562 uM ([2]; SKOV-3 cells (ovarian adenocarcinoma), conc 0.0976562 uM): 92.1% | viability at 72 h, 0.195312 uM ([2]; SKOV-3 cells (ovarian adenocarcinoma), conc 0.195312 uM): 75% | viability at 72 h, 0.390625 uM ([2]; SKOV-3 cells (ovarian adenocarcinoma), conc 0.390625 uM): 80.5% | viability at 72 h, 12.5 uM ([2]; SKOV-3 cells (ovarian adenocarcinoma), conc 12.5 uM): 60.9% | viability at 72 h, 25 uM ([2]; SKOV-3 cells (ovarian adenocarcinoma), conc 25 uM): 70.4% | viability at 72 h, 50 uM ([2]; SKOV-3 cells (ovarian adenocarcinoma), conc 50 uM): 52.8% | viability at 72 h, 0.78125 uM ([2]; SKOV-3 ovarian adenocarcinoma cells, conc 0.78125 uM): 70.1% | viability at 72 h, 1.5625 uM ([2]; SKOV-3 ovarian adenocarcinoma cells, conc 1.5625 uM): 73.8% | viability at 72 h, 3.125 uM ([2]; SKOV-3 ovarian adenocarcinoma cells, conc 3.125 uM): 65.5% | viability at 72 h, 6.25 uM ([2]; SKOV-3 ovarian adenocarcinoma cells, conc 6.25 uM): 70.2% | viability at 72 h, 9.53674e-05 uM ([3]; conc 9.53674e-5 uM): 97.1% | viability at 72 h, 0.000190735 uM ([3]; conc 0.000190735 uM): 100% | viability at 72 h, 0.00038147 uM ([3]; conc 0.00038147 uM): 106% | viability at 72 h, 0.000762939 uM ([3]; conc 0.000762939 uM): 102% | viability at 72 h, 0.00152588 uM ([3]; conc 0.00152588 uM): 106% | viability at 72 h, 0.00305176 uM ([3]; conc 0.00305176 uM): 97.7% | viability at 72 h, 0.00610352 uM ([3]; conc 0.00610352 uM): 105% | viability at 72 h, 0.012207 uM ([3]; conc 0.012207 uM): 92.7% | viability at 72 h, 0.0244141 uM ([3]; conc 0.0244141 uM): 93.7% | viability at 72 h, 0.0488281 uM ([3]; conc 0.0488281 uM): 86% | viability at 72 h, 0.0976562 uM ([3]; conc 0.0976562 uM): 74.9% | viability at 72 h, 0.195312 uM ([3]; conc 0.195312 uM): 60.9% | viability at 72 h, 0.390625 uM ([3]; conc 0.390625 uM): 51.4% | viability at 72 h, 0.78125 uM ([3]; conc 0.78125 uM): 42.4% | viability at 72 h, 1.5625 uM ([3]; conc 1.5625 uM): 36.2% | viability at 72 h, 3.125 uM ([3]; conc 3.125 uM): 29.7% | viability at 72 h, 6.25 uM ([3]; conc 6.25 uM): 31.2% | viability at 72 h, 12.5 uM ([3]; conc 12.5 uM): 29% | viability at 72 h, 25 uM ([3]; conc 25 uM): 27.4% | viability at 72 h, 50 uM ([3]; conc 50 uM): 18.3% | Jurkat viability (%) (T lymphoma Jurkat cells; conc 9.53674e-5 uM): 97.9% and 103.8% | Jurkat viability (%) (T lymphoma Jurkat cells; conc 0.000190735 uM): 101.0% and 98.6% | Jurkat viability (%) (T lymphoma Jurkat cells; conc 0.00038147 uM): 107.1% and 103.4% | Jurkat viability (%) (T lymphoma Jurkat cells; conc 0.000762939 uM): 103.5% and 104.2% | Jurkat viability (%) (T lymphoma Jurkat cells; conc 0.00152588 uM): 104.2% and 102.7% | Jurkat viability (%) (T lymphoma Jurkat cells; conc 0.00305176 uM): 97.4% and 96.9% | Jurkat viability (%) (T lymphoma Jurkat cells; conc 0.00610352 uM): 101.3% and 103.8% | Jurkat viability (%) (T lymphoma Jurkat cells; conc 0.012207 uM): 97.2% and 97.8% | Jurkat viability (%) (T lymphoma Jurkat cells; conc 0.0244141 uM): 92.4% and 98.8% | Jurkat viability (%) (T lymphoma Jurkat cells; conc 0.0488281 uM): 88.4% and 81.5% | Jurkat viability (%) (T lymphoma Jurkat cells; conc 0.0976562 uM): 82.2% and 81.2% | Jurkat viability (%) (T lymphoma Jurkat cells; conc 0.195312 uM): 57.1% and 58.0% | Jurkat viability (%) (T lymphoma Jurkat cells; conc 0.390625 uM): 50.5% and 48.6% | Jurkat viability (%) (T lymphoma Jurkat cells; conc 0.78125 uM): 40.3% and 41.8% | Jurkat viability (%) (T lymphoma Jurkat cells; conc 1.5625 uM): 36.4% and 39.4% | Jurkat viability (%) (T lymphoma Jurkat cells; conc 3.125 uM): 29.6% and 29.1% | Jurkat viability (%) (T lymphoma Jurkat cells; conc 6.25 uM): 28.9% and 29.5% | Jurkat viability (%) (T lymphoma Jurkat cells; conc 12.5 uM): 26.0% and 28.1% | Jurkat viability (%) (T lymphoma Jurkat cells; conc 25 uM): 26.9% and 28.7% | Jurkat viability (%) (T lymphoma Jurkat cells; conc 50 uM): 17.4% and 19.3% | MESO1 viability (%) ([4]; conc 9.53674e-5 uM): 98.3% and 100.4% | MESO1 viability (%) ([4]; conc 0.000190735 uM): 90.7% and 98.1% | MESO1 viability (%) ([4]; conc 0.00038147 uM): 97.4% and 97.9% | MESO1 viability (%) ([4]; conc 0.000762939 uM): 94.8% and 94.3% | MESO1 viability (%) ([4]; conc 0.00152588 uM): 99.1% and 102.8% | MESO1 viability (%) ([4]; conc 0.00305176 uM): 92.2% and 94.8% | MESO1 viability (%) ([4]; conc 0.00610352 uM): 96.7% and 92.3% | MESO1 viability (%) ([4]; conc 0.012207 uM): 91.8% | MESO1 viability (%) ([4]; conc 0.0244141 uM): 99.0% and 94.1% | MESO1 viability (%) ([4]; conc 0.0488281 uM): 84.2% and 90.6% | MESO1 viability (%) ([4]; conc 0.0976562 uM): 83.8% and 83.9% | MESO1 viability (%) ([4]; conc 0.195312 uM): 74.7% and 76.1% | MESO1 viability (%) ([4]; conc 0.390625 uM): 72.2% and 72.1% | MESO1 viability (%) ([4]; conc 0.78125 uM): 64.8% and 71.9% | MESO1 viability (%) ([4]; conc 1.5625 uM): 69.3% and 70.3% | MESO1 viability (%) ([4]; conc 3.125 uM): 69.9% | MESO1 viability (%) ([4]; conc 6.25 uM): 70.9% and 68.1% | MESO1 viability (%) ([4]; conc 12.5 uM): 63.1% and 61.3% | MESO1 viability (%) ([4]; conc 25 uM): 65.5% and 63.8% | MESO1 viability (%) ([4]; conc 50 uM): 61.4% and 51.1% | viability at 72 h, 9.53674e-05 uM ([5]; conc 9.53674e-5 uM): 101% | viability at 72 h, 0.000190735 uM ([5]; conc 0.000190735 uM): 93.5% | viability at 72 h, 0.00038147 uM ([5]; conc 0.00038147 uM): 95% | viability at 72 h, 0.000762939 uM ([5]; conc 0.000762939 uM): 93.4% | viability at 72 h, 0.00152588 uM ([5]; conc 0.00152588 uM): 100% | viability at 72 h, 0.00305176 uM ([5]; conc 0.00305176 uM): 92.4% | viability at 72 h, 0.00610352 uM ([5]; conc 0.00610352 uM): 95.6% | viability at 72 h, 0.012207 uM ([5]; conc 0.012207 uM): 89.8% | viability at 72 h, 0.0244141 uM ([5]; conc 0.0244141 uM): 91% | viability at 72 h, 0.0488281 uM ([5]; conc 0.0488281 uM): 82.4% | viability at 72 h, 0.0976562 uM ([5]; conc 0.0976562 uM): 85.7% | viability at 72 h, 0.195312 uM ([5]; conc 0.195312 uM): 74.8% | viability at 72 h, 0.390625 uM ([5]; conc 0.390625 uM): 75.8% | viability at 72 h, 0.78125 uM ([5]; conc 0.78125 uM): 66.3% | viability at 72 h, 1.5625 uM ([5]; conc 1.5625 uM): 71.8% | viability at 72 h, 3.125 uM ([5]; conc 3.125 uM): 65.2% | viability at 72 h, 6.25 uM ([5]; conc 6.25 uM): 69.4% | viability at 72 h, 12.5 uM ([5]; conc 12.5 uM): 63.3% | viability at 72 h, 25 uM ([5]; conc 25 uM): 63.9% | viability at 72 h, 50 uM ([5]; conc 50 uM): 53% | Effect on cell viability, in words [6]: slightly suppressed the cell viabilities

Reference: publication PMC7419507, “In vitro Cas9-assisted editing of modular polyketide synthase genes to produce desired natural product derivatives” (Nature Communications, 2020)
